Experimental findings from ChEMBL document CHEMBL1201862, “PubChem BioAssay data set” (2004) are described below.

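Interpolation was linear, between the two tested concentrations surrounding the appropriate level; five concentrations were tested over 48 hours in 96-well plates. GI50 = concentration required for 50% inhibition of growth.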 Active and inactive are the calls of the source. Rule as the data show it: active = GI50 up to about 1.1 µM and inactive = higher.

Among the test systems are RPMI-8226; SF-268; MOLT-4; UACC-62; HL-60; OVCAR-5; IGROV-1; UACC-257; HCT-15; MDA-N; TK-10; SK-MEL-5; CAKI-1; SN12C; MDA-MB-231; Hs-578T; NCI-H522; NCI-H460; HCT-116; ACHN.
Common to all, as to test: NCI-60 cell line screen, 48 h

With `NC(=O)Nc1n[nH]c(-c2ccccc2)n1`, the GI50 in the test with RPMI-8226, in the test with SF-268, in the test on MOLT-4, in the test with UACC-62, in the test with HL-60 and in the test on OVCAR-5 was > 100 µM (inactive) throughout. Moreover, the GI50 was > 100 µM (inactive) with IGROV-1; > 100 µM (inactive) in the test on UACC-257; > 100 µM in the test with HCT-15; > 100 µM (inactive) in the test on MDA-N; > 100 µM (inactive) with TK-10; > 100 µM (inactive) with SK-MEL-5. The GI50 with CAKI-1, with SN12C, in the test with MDA-MB-231, with Hs-578T, in the test with NCI-H522 and in the test on NCI-H460 was > 100 µM (inactive) throughout. Moreover, the GI50 with HCT-116 and in the test on ACHN was > 100 µM (inactive) throughout.
Take `NC(=O)Cc1ncn(-c2ccccc2)n1`: the GI50 in the test with RPMI-8226, in the test with SF-268, with MOLT-4, in the test on UACC-62, in the test on HL-60 and in the test with OVCAR-5 was > 100 µM (inactive) each time. Besides, the GI50 in the test on IGROV-1 was > 100 µM (inactive); in the test with UACC-257 it was > 100 µM (inactive); in the test on HCT-15, > 100 µM; with MDA-N it was > 100 µM (inactive); in the test with TK-10, > 100 µM (inactive); with SK-MEL-5, > 100 µM (inactive). In addition, the GI50 in the test on CAKI-1, with SN12C, in the test on MDA-MB-231, in the test with Hs-578T, with NCI-H522 and in the test on HCT-116 was > 100 µM (inactive) throughout. The GI50 in the test with ACHN is > 100 µM (inactive).
As for `CN(C(=O)CC(=O)CP(=O)(c1ccccc1)c1ccccc1)c1ccccc1`, the GI50 with RPMI-8226, with SF-268, with MOLT-4, with UACC-62, with HL-60 and in the test with IGROV-1 was > 100 µM (inactive) throughout. Moreover, the GI50 is > 100 µM (inactive) in the test with UACC-257; > 100 µM with HCT-15; > 100 µM (inactive) with MDA-N; > 100 µM (inactive) in the test with TK-10; > 100 µM (inactive) in the test on SK-MEL-5; > 100 µM (inactive) in the test on CAKI-1. In addition, the GI50 in the test with SN12C, in the test with MDA-MB-231, in the test on Hs-578T, in the test with NCI-H522, with NCI-H460 and in the test with HCT-116 was > 100 µM (inactive) throughout. For the same compound, in the test with ACHN, the GI50 is > 100 µM (inactive).
On to `CCC(C#N)(c1ccccc1)N(CCc1ccccc1)C(=O)c1ccccc1` (configuration not stated), for which the GI50 was > 100 µM (inactive) with RPMI-8226; 88.5 µM (inactive) in the test on SF-268; > 100 µM (inactive) in the test with MOLT-4; 49.5 µM (inactive) with UACC-62; > 100 µM (inactive) in the test on HL-60; > 100 µM (inactive) in the test with OVCAR-5. In addition, the GI50 is 46.9 µM (inactive) in the test with IGROV-1; > 100 µM (inactive) in the test with UACC-257; > 100 µM in the test with HCT-15; > 100 µM (inactive) in the test on MDA-N; 62.1 µM (inactive) in the test on TK-10; > 100 µM (inactive) in the test on SK-MEL-5. Further, the GI50 in the test with CAKI-1 was > 100 µM (inactive); in the test with SN12C it was 85.5 µM (inactive); in the test with MDA-MB-231, 13.5 µM (inactive); with Hs-578T it was 18.2 µM (inactive); in the test on NCI-H522, > 100 µM (inactive); in the test with HCT-116, 24.8 µM (inactive). Also, the GI50 with ACHN was 51.2 µM (inactive).
Consider `CC(=O)NNC(=O)C1CCCCN1` (configuration not stated), for which the GI50 with RPMI-8226, in the test with SF-268, with MOLT-4, in the test on HL-60, in the test on OVCAR-5 and in the test with IGROV-1 was > 100 µM (inactive) in each case. Further, the GI50 with UACC-257 was > 100 µM (inactive); in the test on HCT-15, > 100 µM; in the test with MDA-N, > 100 µM (inactive); in the test on TK-10, > 100 µM (inactive); in the test on SK-MEL-5 it was > 100 µM (inactive); with CAKI-1, > 100 µM (inactive). The GI50 in the test with SN12C, in the test with MDA-MB-231, in the test on Hs-578T, in the test on NCI-H522, with NCI-H460 and in the test with HCT-116 was > 100 µM (inactive) each time. In addition, the GI50 in the test on ACHN is > 100 µM (inactive).
Consider `C=CCN1CCC(OC(=O)C(O)(/C=C\CC)C2CCCC2)CC1` (configuration not stated), for which the GI50 in the test with RPMI-8226, with SF-268, with MOLT-4, with UACC-62, in the test with HL-60 and in the test on OVCAR-5 was > 100 µM (inactive) in each case. Besides, the GI50 is > 100 µM (inactive) with IGROV-1; 0.525 µM (active) with UACC-257; > 100 µM in the test on HCT-15; > 100 µM (inactive) in the test on MDA-N; > 100 µM (inactive) in the test with TK-10; > 100 µM (inactive) in the test with SK-MEL-5. Also, the GI50 with CAKI-1, with SN12C, in the test on MDA-MB-231, with Hs-578T, in the test with NCI-H522 and in the test on HCT-116 was > 100 µM (inactive) throughout. Moreover, the GI50 in the test on ACHN is > 100 µM (inactive).
As to `Clc1cc2ncn(C3CCCO3)c2cc1Cl` (configuration not stated), the GI50 is 88.9 µM (inactive) in the test with RPMI-8226; 99.3 µM (inactive) in the test with SF-268; 54 µM (inactive) in the test with MOLT-4; 40.1 µM (inactive) in the test on UACC-62; 78.9 µM (inactive) with HL-60; > 100 µM (inactive) with OVCAR-5. Also, the GI50 with IGROV-1 is 17.3 µM (inactive); in the test on UACC-257, > 100 µM (inactive); with HCT-15 it was > 100 µM; in the test on MDA-N it was > 100 µM (inactive); in the test with TK-10, 96.2 µM (inactive); in the test on SK-MEL-5, 43.3 µM (inactive). For the same compound, the GI50 in the test with CAKI-1 is 58.1 µM (inactive); in the test with SN12C, > 100 µM (inactive); with MDA-MB-231, > 100 µM (inactive); in the test with Hs-578T, 48.8 µM (inactive); in the test on NCI-H522 it was 24.5 µM (inactive); in the test with HCT-116 it was 78.5 µM (inactive). Moreover, the GI50 in the test on ACHN was 98.9 µM (inactive).
As for `COC(=O)[C@H](Cc1ccccc1)NP(=O)(OCCC#N)OCC1OC(n2cc(C)c(=O)[nH]c2=O)CC1N=[N+]=[N-]` (some centres not stated), the GI50 in the test on RPMI-8226, with SF-268, with MOLT-4, in the test with UACC-62, in the test with HL-60 and with OVCAR-5 was > 100 µM (inactive) throughout. Also, the GI50 in the test with IGROV-1 is > 100 µM (inactive); in the test on UACC-257, > 100 µM (inactive); with HCT-15, > 100 µM; with MDA-N, > 100 µM (inactive); with TK-10 it was > 100 µM (inactive); in the test on SK-MEL-5, > 100 µM (inactive). The GI50 in the test on CAKI-1 is > 100 µM (inactive); with SN12C, > 100 µM (inactive); in the test on MDA-MB-231, > 100 µM (inactive); in the test on Hs-578T it was > 100 µM (inactive); in the test on NCI-H522, 35 µM (inactive); in the test with NCI-H460, > 100 µM (inactive). Moreover, the GI50 in the test on HCT-116 and in the test on ACHN was > 100 µM (inactive) each time.
As for `O=C1CSC(=S)N1` [RHODANINE], the GI50 with RPMI-8226, in the test with SF-268, with MOLT-4, in the test on HL-60, in the test with OVCAR-5 and in the test with IGROV-1 was > 100 µM (inactive) each time. Further, the GI50 in the test on UACC-257 was > 100 µM (inactive); with HCT-15, > 100 µM; in the test with MDA-N, > 100 µM (inactive); in the test with TK-10, > 100 µM (inactive); with SK-MEL-5, > 100 µM (inactive); with CAKI-1, > 100 µM (inactive). Besides, the GI50 in the test with SN12C, in the test on MDA-MB-231, in the test on Hs-578T, in the test on NCI-H522, in the test on NCI-H460 and with HCT-116 was > 100 µM (inactive) in each case. Also, in the test on ACHN, the GI50 is > 100 µM (inactive).
On to `Cc1cn([C@H]2C=C[C@@H](CO)O2)c(=O)[nH]c1=O` [STAVUDINE], for which the GI50 was 466 µM (inactive) in the test with RPMI-8226; > 1000 µM (inactive) in the test with SF-268; > 1000 µM (inactive) with MOLT-4; 902 µM (inactive) with UACC-62; 348 µM (inactive) in the test on HL-60; > 1000 µM (inactive) with OVCAR-5. Also, the GI50 is > 1000 µM (inactive) in the test on IGROV-1; > 1000 µM (inactive) in the test on UACC-257; > 1000 µM in the test with HCT-15; > 1000 µM (inactive) in the test on MDA-N; 583 µM (inactive) in the test with TK-10; > 1000 µM (inactive) in the test with SK-MEL-5. Besides, the GI50 is 307 µM (inactive) with CAKI-1; > 1000 µM (inactive) with SN12C; > 1000 µM (inactive) with MDA-MB-231; > 1000 µM (inactive) with Hs-578T; 350 µM (inactive) with NCI-H522; > 1000 µM (inactive) with HCT-116. For the same compound, the GI50 with ACHN was > 1000 µM (inactive).
